Test results: patent EP0738149B1 (priority 1994, dated 1995)
Where a name gives a salt, the structure may show the parent alone.

Test system: not listed separately
Assay: Neurotoxicity in mice (rotorod ataxia test), i.p.
Conditions: mouse, in vivo, ip, MICE TD50, mice; Table 15
Procedure: (§1) Neurotoxicity of the claimed agents was also assessed in mice (i.p. administration) by the rotorod ataxia test and/or in rats (p.o. administration) by positional sense test and gait stance test. […] The term quantitating the neurotoxicity is the medial neurological toxic dose (TD50), was determined in the above tests.

With Cc1ccc2c(c1)CCC2N (racemic) [Example 38, (rae)-5-Methyl-1-aminoindan.HCl] as the compound, how does the TD50 read?
Its TD50 is under 100 mg/kg.

With CCCC(=O)NC1CCc2ccccc21 (racemic) [Example 11, (rac)-N-Butyryl-1-aminoindan] as the compound, how does the TD50 read?
The TD50 was under 300 mg/kg.

Which TD50 does the source give for CN[C@H]1CCc2ccccc21 [Example 14, (S)-N-Methyl-1-aminoindan.HCl] here?
Its TD50 is 100 mg/kg.

Which TD50 does the source give for N[C@H]1CCc2ccc(F)cc21 [K, (S)-6-fluoro-1-aminoindan] here?
The TD50 was under 250 mg/kg.

With NC1CCc2ccc(O)cc21 (racemic) [Example 34, (rac)-6-Hydroxy-1-aminoindan.HCl] as the compound, how does the TD50 read?
Its TD50 is over 300 mg/kg.

With c1ccc2c(c1)CCC2NC1CCc2ccccc21 (racemic) [Example 43, (rac)-M,N-Di-(1-indanyl)amine.HCl] as the compound, how does the TD50 read?
The TD50 was under 100 mg/kg.

Which TD50 does the source give for NC1Cc2ccccc21 (centres unmarked) [Example 27, 1-Aminobenzocyclobutene.HCl] here?
The TD50 was over 100 mg/kg.

Same assay, conditions: mouse, in vivo, ip, MICE TD50, mice; Table 16

With CN[C@H]1CCc2ccccc21 [Example 14, (S)-N-Methyl-1-aminoindan.HCl] as the compound, how does the TD50 read?
The TD50 was 100 mg/kg.

With N[C@H]1CCc2ccc(F)cc21 [K, (S)-6-fluoro-1-aminoindan] as the compound, how does the TD50 read?
Its TD50 is under 250 mg/kg.

Test system: mice
Assay: Maximal electroshock (MES) model in mice, i.p.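 Also: Electroshock-induced convulsion model serving to demonstrate antiepileptic efficacy against generalized and partial seizures.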
Format: in vivo
Conditions: Mus musculus, ip, Table 15

Which ED50 does the source give for Cc1ccc2c(c1)CCC2N (racemic) [Example 38, (rae)-5-Methyl-1-aminoindan.HCl] here?
The ED50 was under 100 mg/kg.

Which ED50 does the source give for CCCC(=O)NC1CCc2ccccc21 (racemic) [Example 11, (rac)-N-Butyryl-1-aminoindan] here?
The ED50 was under 300 mg/kg.

For N[C@H]1CCc2ccc(F)cc21 [K, (S)-6-fluoro-1-aminoindan], which ED50 is on record?
The ED50 was 115 mg/kg.

For NC1CCc2ccc(O)cc21 (racemic) [Example 34, (rac)-6-Hydroxy-1-aminoindan.HCl], which ED50 is on record?
Its ED50 is under 300 mg/kg.

For c1ccc2c(c1)CCC2NC1CCc2ccccc21 (racemic) [Example 43, (rac)-M,N-Di-(1-indanyl)amine.HCl], which ED50 is on record?
The ED50 was under 100 mg/kg.

For C#CCN[C@@H]1CCc2ccccc21.CS(=O)(=O)O [F, (R)-N-propargyl-1-aminoindan mesylate salt], which ED50 is on record?
The ED50 was under 300 mg/kg.

With NC1Cc2ccccc21 (centres unmarked) [Example 27, 1-Aminobenzocyclobutene.HCl] as the compound, how does the ED50 read?
The ED50 was under 100 mg/kg.

For c1ccc(CNC2CCc3ccccc32)cc1 (racemic) [Example 16, (rac)-N-Benzyl-1-aminoindan.HCl], which ED50 is on record?
Its ED50 is under 50 mg/kg.

Same assay, conditions: i.p., Table 15

With NC(=O)CNC1CCCc2ccccc21 (racemic) [Example 4, (rac)-N-(2-Acetamido)-1-aminotetralin] as the compound, how does the “MICE MES ED50” value read?
Its value is under 100 mg/kg.

Same assay, conditions: statement in words

With N[C@H]1CCc2ccc(F)cc21 [K, (S)-6-fluoro-1-aminoindan] as the compound, how does the “activity in the MES model in mice” value read?
Its value is “showed activity”.

For NC1CCc2ccc(O)cc21 (racemic) [Example 34, (rac)-6-Hydroxy-1-aminoindan.HCl], which “activity in the MES model in mice” value is on record?
The value was “showed activity”.

Test system: not listed separately
Assay: in vivo
Conditions: rat, in vivo, po
Procedure: as §1

For Cc1ccc2c(c1)CCC2N (racemic) [Example 38, (rae)-5-Methyl-1-aminoindan.HCl], which TD50 is on record?
Its TD50 is over 50 mg/kg.

Which TD50 does the source give for CCCC(=O)NC1CCc2ccccc21 (racemic) [Example 11, (rac)-N-Butyryl-1-aminoindan] here?
The TD50 was over 50 mg/kg.

For CN[C@H]1CCc2ccccc21 [Example 14, (S)-N-Methyl-1-aminoindan.HCl], which TD50 is on record?
The TD50 was over 142 mg/kg.

For c1ccc2c(c1)CCC2NC1CCc2ccccc21 (racemic) [Example 43, (rac)-M,N-Di-(1-indanyl)amine.HCl], which TD50 is on record?
The TD50 was over 50 mg/kg.

For NC1Cc2ccccc21 (centres unmarked) [Example 27, 1-Aminobenzocyclobutene.HCl], which TD50 is on record?
The TD50 was over 50 mg/kg.

Which TD50 does the source give for c1ccc(CNC2CCc3ccccc32)cc1 (racemic) [Example 16, (rac)-N-Benzyl-1-aminoindan.HCl] here?
Its TD50 is over 50 mg/kg.

Test system: rats
Assay: Neurotoxicity in rats (positional sense test and gait stance test), p.o.
Conditions: rats, p.o.; Table 16
Procedure: as §1

For CN[C@H]1CCc2ccccc21 [Example 14, (S)-N-Methyl-1-aminoindan.HCl], which “RATS TD50” value is on record?
Its value is over 142 mg/kg.

Test system: mechanically dissociated neonatal rat cerebellum
Assay: Reversal of NMDA induced cell death in cultures of neonatal rat cerebellum
Format: cell-based
Conditions: 0.005 µM + NMDA 1mM for 3 hours; relative to control (100%)
Procedure: The cerebellum was aseptically dissociated from 6 or 7-day old rat pups and placed in a 15ml sterile plastic conical tube containing 3ml of Dulbecco's modified Eagle's medium (DMEM) with a high glucose concentration ([…]) and 2mM (v/v) L-glutamine and an antibiotic antimitotic mixture. The cerebella were then dissociated after 20-25 passages through a sterile 13 gauge, 10cm long stainless steel needle attached to a 5ml syringe with an inserted 45 micrometer pore nylon sieve. The dissociated cells were centrifuged at 200g for 5 minutes. The supernatant was discarded and the cells resuspended in medium enriched with 15% (v/v) heat inactivated fetal calf serum. Cell viability was determined by the tryptan blue exclusion test.
Cells were plated at a density of 200/mm^2 on poly-L-lysine coated surfaces. Poly-L-lysine coated glass coverslips were prepared at least one hour in advance of plating by immersing sterile coverslips in sterile distilled water solution containing 15 microgram/ml poly-L-lysine, and washing in sterile water just prior to use. The plated cells were covered with enriched medium and incubated at 37°C in an atmosphere of 5% CO2 in air and 97% humidity. After three days in culture, the media was replaced with media containing the desired test compound. Each test compound was tested in duplicate. Toxic-dose response was determined for each compound.
Four groups were run in each set of experiments; • I. Control, consisting of enriched media alone, • II. N-methyl-D-aspartate (NMDA, 1mM for 3 hours) as the cytotoxic challenge, • III. Test compound plus NMDA, and • IV. Positive control, spermine(0.01 micromoles) plus NMDA.
Nerve cell survival was evaluated by phase contrast microscopy and tryptan blue staining after 24 hours.
Surviving cells in culture are measured relative to control (100%), as described above. Percent protection is the Cell Survival for the test compound minus the NMDA effect. Thus, maximal protection is 100% minus 30% NMDA effect i.e. […]. The Effective Protection was calculated as the percent of the Percent Protection (X) divided by the maximal protection value (e.g. X x 100/70).

Which “SURVIVING CELL IN CULTURE” value does the source give for Cl.N[C@@H]1CCc2ccc(O)cc21 [Example 35, (R)-6-Hydroxy-1-aminoindan.HCl] here?
The value was 60%.

Same assay, conditions: 0.005 µM + NMDA; Cell Survival minus the NMDA effect

With Cl.N[C@@H]1CCc2ccc(O)cc21 [Example 35, (R)-6-Hydroxy-1-aminoindan.HCl] as the compound, how does the “PERCENT PROTECTION” value read?
The value was 30%.

Same assay, conditions: 0.005 µM + NMDA; X x 100/70

For Cl.N[C@@H]1CCc2ccc(O)cc21 [Example 35, (R)-6-Hydroxy-1-aminoindan.HCl], which “EFFECTIVE PROTECTION” value is on record?
The value was 43%.

Same assay, conditions: 0.010 µM + NMDA 1mM for 3 hours; relative to control (100%)

For Cl.N[C@@H]1CCc2ccc(O)cc21 [Example 35, (R)-6-Hydroxy-1-aminoindan.HCl], which “SURVIVING CELL IN CULTURE” value is on record?
The value was 34%.

Same assay, conditions: 0.010 µM + NMDA; Cell Survival minus the NMDA effect

With Cl.N[C@@H]1CCc2ccc(O)cc21 [Example 35, (R)-6-Hydroxy-1-aminoindan.HCl] as the compound, how does the “PERCENT PROTECTION” value read?
The value was 4%.

Same assay, conditions: 0.010 µM + NMDA; X x 100/70

With Cl.N[C@@H]1CCc2ccc(O)cc21 [Example 35, (R)-6-Hydroxy-1-aminoindan.HCl] as the compound, how does the “EFFECTIVE PROTECTION” value read?
Its value is 6%.

Same assay, conditions: 0.100 µM + NMDA 1mM for 3 hours; relative to control (100%)

With Cl.N[C@@H]1CCc2ccc(O)cc21 [Example 35, (R)-6-Hydroxy-1-aminoindan.HCl] as the compound, how does the “SURVIVING CELL IN CULTURE” value read?
The value was 30%.

Same assay, conditions: 0.100 µM + NMDA; Cell Survival minus the NMDA effect

Which “PERCENT PROTECTION” value does the source give for Cl.N[C@@H]1CCc2ccc(O)cc21 [Example 35, (R)-6-Hydroxy-1-aminoindan.HCl] here?
Its value is 0%.

Same assay, conditions: 0.100 µM + NMDA; X x 100/70

Which “EFFECTIVE PROTECTION” value does the source give for Cl.N[C@@H]1CCc2ccc(O)cc21 [Example 35, (R)-6-Hydroxy-1-aminoindan.HCl] here?
The value was 0%.

Same assay, conditions: positive control, 0.01 micromoles plus NMDA

What does the source list for NCCCNCCCCNCCCN [Spermine, spermine, reference compound]?
EFFECTIVE PROTECTION: 74%; PERCENT PROTECTION: 52%

Same assay, conditions: positive control, 0.01 micromoles plus NMDA; relative to control (100%)

Which “SURVIVING CELL IN CULTURE” value does the source give for NCCCNCCCCNCCCN [Spermine, spermine, reference compound] here?
The value was 82%.

Test system: Male mongolian gerbils
Assay: Global brain ischemia in gerbils (CA1 pyramidal neurons)
Format: in vivo
Conditions: 0.1 mg/kg ip, 3 injections; fraction of hippocampi protected from ischemia; 14 days post-ischemia
Procedure: Each artery was clamped for 5 minutes with aneurysm clips to produce global brain ischemia. The anesthesia was discontinued upon clamping. After 5 minutes the clamps were removed and the wound closed with skin clips.
For treatment, the test compound or vehicle were injected intra-peritoneally (ip) in a volume of 50 microliters of solvent per 10g body weight. The first injection was given two minutes after clamp removal, and thereafter daily for the next 2 post-operative days (total of 3 injections).
Seven groups each of 4-8 animals were compared: • I. Control; (sham- or unoperated and saline treated), • II. Vehicle treated, unoperated (when solvent is other than saline), • III. Ischemia - untreated or saline treated), • IV. Ischemia - vehicle treated (when solvent is other than saline), • V. Ischemia - Test compound treated, one sub-group per concentration tested, • VI. Ischemia and pentobarbital (40 mg/kg) as positive control).
Analysis of neuronal damage was performed 14 days post-ischemia by counting pyramidal neurons throughout the CA1 layer of the anterior hippocampus in […] thick (paraffin) coronal brain sections stained with hematoxylin and erosin.
Percent Protection values represent the fraction of hippocampi protected from ischemia in a group of animals treated with the stated dose of compound.

With Cl.N[C@@H]1CCc2ccc(O)cc21 [Example 35, (R)-6-Hydroxy-1-aminoindan.HCl] as the compound, how does the “PERCENT PROTECTION” value read?
The value was 25.0%.

Same assay, conditions: 1.0 mg/kg ip, 3 injections; fraction of hippocampi protected from ischemia; 14 days post-ischemia

Which “PERCENT PROTECTION” value does the source give for Cl.N[C@@H]1CCc2ccc(O)cc21 [Example 35, (R)-6-Hydroxy-1-aminoindan.HCl] here?
The value was 37.5%.

Same assay, conditions: 10.0 mg/kg ip, 3 injections; fraction of hippocampi protected from ischemia; 14 days post-ischemia

For Cl.N[C@@H]1CCc2ccc(O)cc21 [Example 35, (R)-6-Hydroxy-1-aminoindan.HCl], which “PERCENT PROTECTION” value is on record?
Its value is 37.5%.

Test system: rats
Assay: Maximal electroshock (MES) model in rats, p.o.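 Also: rat MES model gauging antiepileptic efficacy versus generalized and partial seizures after oral dosing.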
Format: in vivo
Conditions: Rattus norvegicus, po; rats, p.o.; Table 15; read-out: RATS MES 50

With CCCC(=O)NC1CCc2ccccc21 (racemic) [Example 11, (rac)-N-Butyryl-1-aminoindan] as the compound, how does the ED50 read?
The ED50 was under 50 mg/kg.

Same assay, conditions: rats, p.o.; Table 15

For Cc1ccc2c(c1)CCC2N (racemic) [Example 38, (rae)-5-Methyl-1-aminoindan.HCl], which “RATS MES 50” value is on record?
The value was 50 mg/kg.

With c1ccc2c(c1)CCC2NC1CCc2ccccc21 (racemic) [Example 43, (rac)-M,N-Di-(1-indanyl)amine.HCl] as the compound, how does the “RATS MES 50” value read?
The value was under 50 mg/kg.

For NC1Cc2ccccc21 (centres unmarked) [Example 27, 1-Aminobenzocyclobutene.HCl], which “RATS MES 50” value is on record?
Its value is under 50 mg/kg.

Which “RATS MES 50” value does the source give for c1ccc(CNC2CCc3ccccc32)cc1 (racemic) [Example 16, (rac)-N-Benzyl-1-aminoindan.HCl] here?
The value was 50 mg/kg.
